Source: publication PMC9145754, “Novel Soloxolone Amides as Potent Anti-Glioblastoma Candidates: Design, Synthesis, In Silico Analysis and Biological Activities In Vitro and In Vivo” (Pharmaceuticals, 2022)

Experiments:
U87 cells [1] = experiment: Autophagy, MDC staining, U87; assay type: cell-based, human; settings: 24 h
Description: (§1) Given that pentacyclic triterpenoids can induce tumor cell death not only by the apoptotic pathway but also by triggering autophagy, we next studied whether 12 stimulated autophagy in glioblastoma cells. For this, U87 and U118 cells were incubated with tryptamide 12 at toxic concentrations (2 or 4 µM) for 24 h followed by cell staining with monodansylcadaverine (MDC), a fluorescent dye specifically labeling autophagosomes. […] Considering that autophagy can be associated not only with cell death but also with cytoprotection, its role in the cytotoxicity of 12 in glioblastoma cells was further studied.
(§2) To evaluate the ability of 12 to induce autophagy, U87 and U118 cells were seeded at 2.8 × 10^5 cells/well in 6-well plates and incubated under standard conditions overnight followed by their treatment with 12 in amounts of 2 and 4 μM for 24 h. Then, the cells were collected and washed with PBS as described above and resuspended in 500 µL of PBS containing monodancylcadaverine (MDC) at 50 μM. After incubation for 15 min under standard conditions, the cells were washed with PBS and analyzed by flow cytometry. For each sample, 10,000 events were acquired.

U118 cells [2] = experiment: Autophagy, MDC staining, U118; assay type: cell-based, human; settings: 24 h
Description: as §1, §2

U87 cells [3] = experiment: Cytotoxicity of 12 with chloroquine (MTT); assay type: cell-based; settings: U87, 12 with chloroquine 50 µM, 24 h
Description: as §1
In order to evaluate whether autophagy plays an important role in compound 12-induced glioblastoma cell death, U87 cells were seeded in quadruplicate at a density of 1 × 10^4 cells/well in 96-well plates, incubated overnight under standard conditions and co-treated with 12 at 1–5 μM and chloroquine (CQ) at 50 μM for 24 h. Then, cell viability was measured using an MTT test and the curves of cytotoxicity of 12 in the presence or absence of CQ were compared.

U118 cells [4] = experiment: Colony formation assay, U118; assay type: cell-based, human; settings: 14 days
Description: To evaluate the antitumor potential of 12 more comprehensively, its effects at non-toxic concentrations (25–500 nM; cell survival of ≥90%) on a range of metastatic-related processes in glioblastoma cells were studied. Firstly, we investigated the inhibitory activity of 12 on the clonogenic capacity of tumor cells in vitro, which reflects their ability to form colonies from single cells which characterizes the stemness of tumor cells and plays a crucial role in metastasis.
U118 cells were seeded in 96-well plates in six replicates at a density of 200 cells/well and treated with 12 at 25–500 nM for 14 days under standard conditions. The culture media were replaced with fresh media containing corresponding concentrations of 12 every 6 days. After the incubation time, cell colonies were fixed with 4% paraformaldehyde, stained with crystal violet dye (0.1% w/v) and photographed using the iBright 1500 Imaging System (Invitrogen, USA). The percentage of area covered by cell colonies was computed using the ColonyArea ImageJ plugin [95].

U87 glioblastoma = experiment: Subcutaneous U87 glioblastoma xenograft model; assay type: in vivo, Balb/C nude mice
Description: Given the high antitumor potential of 12 with respect to glioblastoma cells observed in vitro, we further questioned whether the investigated triterpenoid suppresses the growth of glioblastoma in a murine model. To understand this, 12 was intraperitoneally injected as a solution in 10% Tween-80 at a dosage of 20 mg/kg into nude mice bearing subcutaneously implanted human U87 glioblastomas (the experimental setup is presented in Figure 8A). […] Analysis of tumor weights also confirmed the high antitumor activity of 12, which decreased this parameter by 2.1- and 3.4-fold compared to the untreated and vehicle-treated groups, respectively (Figure 8D).
A xenograft model of tumor progression was induced by subcutaneous (s.c.) injection of U87 glioblastoma cells (2 × 10^7 cells/mL) suspended in 0.1 mL of saline buffer with 0.05 mL of Matrigel® Matrix (Corning, NY, USA) into the left flank of Balb/C nude mice. On day 5 after tumor transplantation, the mice were divided into three groups (n = 6 per group): (1) mice without treatment (control); (2) mice that received intraperitoneal (i.p.) injections of 10% Tween-80 (vehicle); and (3) mice that received i.p. injections of 12 in 10% Tween-80 at a dose of 20 mg/kg. The treatment was carried out thrice per week. The total number of injections was seven. During the experiment, the tumor volumes were determined three times a week using caliper measurements and were calculated as V= (D × d^2)/2, where D is the longest diameter of the tumor node and d is the shortest diameter of the tumor node perpendicular to D. The mice were sacrificed on day 21 after tumor transplantation and the tumors and brains were collected for subsequent histological and pharmacological analysis.
For the histological study, the tumor specimens were fixed in 10% neutral-buffered formalin (BioVitrum, St. Petersburg, Russia), dehydrated in ascending ethanols and xylols and embedded in HISTOMIX paraffin (BioVitrum, St. Petersburg, Russia). The paraffin sections (5 μm) were sliced on a Microm HM 355S microtome (Thermo Fisher Scientific, Waltham, MA, USA) and stained with hematoxylin and eosin. Extracellular matrix deposition was determined using Masson’s trichrome staining.
For the immunohistochemical study, the tumor sections (3–4 μm) were deparaffinized and rehydrated. Antigen retrieval was carried out after exposure in a microwave oven at 700 W. The samples were incubated with anti-Ki-67 (ab16667, Abcam, Boston, MA, USA), anti-α-SMA (ab5694, Abcam, USA) or anti-CD31 (ab182981, Abcam, USA) primary antibodies according to the manufacturer’s protocol. Then, the sections were incubated with secondary horseradish peroxidase (HPR)-conjugated antibodies, exposed to the 3,3′-diaminobenzidine (DAB) substrate (Rabbit Specific HRP/DAB (ABC) Detection IHC Kit, ab 64261, Abcam, USA) and stained with Mayer’s hematoxylin.
Morphometric analysis of tumor sections included evaluation of the numerical density (Nv) of mitoses and Ki-67-positive cells in a square unit of tumor tissue—3.2 × 10^6 μm^2 in this case. At least ten random fields from the tumor specimens of six mice in each group (60 testing fields in total) were studied.

[5] = 20 mg/kg i.p., seven injections
[6] = 20 mg/kg i.p., seven injections, day 21

In the case of `CC1(C)C(=O)C(C#N)=C[C@]2(C)C3=CC(=O)[C@@H]4[C@@H]5C[C@@](C)(C(=O)NCCc6c[nH]c7ccccc67)CC[C@]5(C)CC[C@@]4(C)[C@]3(C)CC[C@@H]12` [compound 12], the “MDC-positive cells, U87” value (U87 cells [1]; 12 at 2 µM) is reported as 19.57%, the “MDC-positive cells, U87” value (U87 cells [1]; 12 at 4 µM) is reported as 31.95% and the “MDC-positive cells, U118” value (U118 cells [2]; 12 at 2 µM) is reported as 8.55%. For the same molecule, the “MDC-positive cells, U118” value (U118 cells [2]; 12 at 4 µM) was 8.02%, the “effect of chloroquine on cytotoxic activity of 12” value (U87 cells [3]) was “did not affect the cytotoxic activity” and the “reduction in the area of cell colonies compared to the control” value (U118 cells [4]; U118, 12 at 200 nM) was 1.4 fold. The “reduction in the area of cell colonies compared to the control” value (U118 cells [4]; U118, 12 at 500 nM) was 2 fold, the “decrease in tumor weight compared to the untreated group” value (U87 glioblastoma; [5]) was 2.1 fold and the “decrease in tumor weight compared to the vehicle-treated group” value (U87 glioblastoma; [5]) was 3.4 fold. For the same molecule, the “decrease in tumor volume compared to the control” value (U87 glioblastoma; [6]) was 3 fold, the “decrease in tumor volume compared to the vehicle-treated group” value (U87 glioblastoma; [6]) was 4.4 fold and the “decrease in numerical density of Ki-67-positive cells compared to the untreated control group” value (U87 glioblastoma; 20 mg/kg i.p., tumor tissue) was 3.5 fold. The “decrease in numerical density of Ki-67-positive cells compared with vehicle-treated animals” value (U87 glioblastoma; 20 mg/kg i.p., tumor tissue) was 2.4 fold, the “decrease in numerical density of mitotic cells (Nv) compared to the untreated control group” value (U87 glioblastoma; 20 mg/kg i.p., tumor tissue) was 3.4 fold and the “decrease in numerical density of mitotic cells (Nv) compared with vehicle-treated animals” value (U87 glioblastoma; 20 mg/kg i.p., tumor tissue) was 4 fold. For the same molecule, the “collagen fiber content in tumor tissue” value (U87 glioblastoma; Masson's trichrome, versus untreated and vehicle-treated mice) was “decreased the collagen fiber content” and the “expression of CD31 and α-SMA in tumor tissue” value (U87 glioblastoma; immunohistochemistry, versus control and vehicle-treated mice) was “increased the expression of both CD31 and α-SMA”.
